Measured values reported in paper PMC7762046, “Fragments of a Wheat Hevein-Like Antimicrobial Peptide Augment the Inhibitory Effect of a Triazole Fungicide on Spore Germination of Fusarium oxysporum and Alternaria solani” (Antibiotics, 2020).
Like-named read-outs stand apart in the source and are kept apart here. Marks after values point to notes of the source that are not given here. Residues, ends and D or L forms follow the SMILES beside them.

What was measured:
F. oxysporum [1] = format: cell-based, Fusarium oxysporum f. sp. lycopersici (strain F37)
Protocol: In the first series of these experiments, we tested the inhibitory effect of the fragments against F. oxysporum and compared the inhibitory activity of the fragments to each other and to the entire WAMP-2 peptide. Microconidia of the pathogen were treated to each of the WAMP-2 fragments taken at three or four concentrations ranging between 50 and 200 (WAMP-N, WAMP-G2), 100 and 400 (WAMP-G1), or 50 and 400 (WAMP-C) µg/mL. […] After the treatments, the rate of germinated conidia was determined, expressed as the percent relative to the total number of conidia counted (500 ones per treatment). Effective doses (EDs) providing a 50% or 99.9% inhibition were calculated by probit analysis. The performed analysis confirmed our previous data on the antifungal activity of WAMP-2-derived fragments towards the Fusarium wilt agent.
(§1) The inhibitory effect of synthesized peptides on conidial germination of fungi was assessed by a microtiterplate assay. Fungal conidia were added to WAMP-2-derived peptides, already dissolved in SDW, to prepare suspensions having final concentrations of 10^5 microconidia/mL (F. oxysporum) or 3 × 10^4 macroconidia/mL (A. solani). Resulting suspensions were incubated at 20–22 °C overnight in wells of 96-well microtiter plates. Control suspensions (with the same final concentrations of conidia) were prepared using SDW. Thereafter, germinated and non-germinated conidia (500 ones of each pathogen per treatment) were counted in treated and control suspensions using an inverted microscope. The average number of conidia germinated in these suspensions was calculated and expressed as the percent of the total number of the counted conidia. In addition, percent germination inhibition in the treated conidia, relative to germination in controls, was determined and indicated as levels of the inhibitory effect in Table 2 and Table 3. Oligopeptides were tested at final concentrations of 50, 100, 200, and 400 µg/mL, which were selected based on previous results of testing of the same WAMP-2-derived peptides for the ability to inhibit spore germination in other Fusarium and Alternaria species.
Inhibitory concentrations of the peptides providing in vitro 50% or 99% in vitro suppression of conidial germination (ED50, and ED99, respectively) were determined by the probit analysis with the involvement of a linear regression. In a regression equation (Y = ax + b) used in probit analyses, Y is the probit value for 50% or 99% inhibition levels, x values are decimal logarithms of the correspondent concentrations, and a and b represent regression coefficients. The calculated ED99 values from the probit analysis were considered as the minimum fungicidal concentration (MFC), i.e., the lowest concentration of a peptide, used alone, resulting in […] inhibition of conidial germination.
For each of the two pathogens, microtiter plate tests with synthesized peptides included three independent experimental series. Each experiment included 5 replications of each treatment, 100 conidia per each one (n = 500). […] Mean values, standard deviations, standard errors, as well as significant differences from controls and between treatments (t-test for independent variables, p ≤ 0.05), were calculated using STATISTICA v. […] Approximation of confidence values (R^2) and regression coefficients were determined using statistical functions of Microsoft Excel 2013 (Microsoft Corp. Redmond, WA, USA).

F. oxysporum [2] = format: cell-based, Fusarium oxysporum f. sp. lycopersici (strain F37); conditions: for Expected additive inhibitory effect (Ee), peptide combined with Folicur: calculated by Limpel's formula
Protocol: (§2) The assays were performed in 96-well microtiter plates, using a “checkerboard” design. Fungal conidia were treated with either Folicur® or peptide fragments, each alone, and, in parallel, were subjected to combined treatments wherein the fungicide and one of the WAMP-2-derived peptides were mixed in the same concentration as when used alone. […] However, enhancement potency varied depending on the pathogen, the WAMP fragment, and co-applied concentrations of the WAMP-2 fragments and Folicur®.
as §1
(§3) In vitro tests involving pathogen sensitization to Folicur® EC 250 were designed under the principle of a microdilution checkerboard assay. Fungal conidia were incubated in 96-well plates in mixtures of the fungicide and each of the peptides at the above-mentioned concentrations in parallel with conidia’ incubation in the solutions of Folicur® or the oligopeptides, alone, used at the same final concentrations as in the mixtures.
(§4) To reveal oligopeptide/fungicide synergy, the Limpel criterion Ee < Er was determined by Formula (1):Ee,% = (X + Y) − XY/100 < Er,% (at p ≤ 0.05),(1) where Ee is the level of an expected additive effect from application of both test compounds; X and Y represent inhibition of the spore germination in % by each antifungal agent used alone; and Er is the percentage of actual inhibition obtained experimentally by co-application of X and Y.
(§5) For each of the two pathogens, microtiter plate tests with synthesized peptides included three independent experimental series. Each experiment included 5 replications of each treatment, 100 conidia per each one (n = 500). Experiments evaluating the sensitizing activity of the tested peptides on leaf disks and detached tomato seedlings were additionally repeated twice. Mean values, standard deviations, standard errors, as well as significant differences from controls and between treatments (t-test for independent variables, p ≤ 0.05), were calculated using STATISTICA v. 6.1 software (StatSoft Inc., Tulsa, OK, USA). Approximation of confidence values (R^2) and regression coefficients were determined using statistical functions of Microsoft Excel 2013 (Microsoft Corp. Redmond, WA, USA).

A. solani [3] = format: cell-based, Alternaria solani (strain MO-VNIIF-9-2018)
Protocol: as §1, with “Oligopeptides were tested at final concentrations of 50, 100, 200, and 400 µg/mL, which were selected based on previous results of testing of the same WAMP-2-derived peptides for the ability to inhibit spore germination in other Fusarium and Alternaria species.” left out
For each of the two pathogens, microtiter plate tests with synthesized peptides included three independent experimental series. […] Mean values, standard deviations, standard errors, as well as significant differences from controls and between treatments (t-test for independent variables, p ≤ 0.05), were calculated using STATISTICA v. […]

A. solani [4] = format: cell-based, Alternaria solani (strain MO-VNIIF-9-2018); remark: listed apart in the source
Protocol: as §2, §1, §3, §4, §5

For “CCGKYGFCGSGDAYC [WAMP-G2, chemically synthesized fragment (residues 18–32) from the central region of WAMP-2]”, the ED50 (F. oxysporum [1]; 50% inhibition of microconidia germination, probit analysis, SDW, overnight 20–22 °C) was 0.35 ^a µg/mL, the “ED99 (MFC)” value (F. oxysporum [1]; lowest concentration giving 99.9% inhibition of conidial germination, probit analysis) was 35.1 ^b µg/mL and the “Expected additive inhibitory effect (Ee), peptide combined with Folicur” value (shortened to “Expected additive inhibitory effect (Ee)”) (F. oxysporum [2]; peptide 50 µg/mL + Folicur 0.005 µg/mL) was 14.5%. For the same compound, the “Observed inhibitory effect (Er), peptide combined with Folicur” value (“Observed inhibitory effect (Er)” below) (F. oxysporum [2]; peptide 50 µg/mL + Folicur 0.005 µg/mL, mean of 3 experiments) was 27.8 ^b %, the “Expected additive inhibitory effect (Ee)” value (F. oxysporum [2]; peptide 50 µg/mL + Folicur 0.01 µg/mL) was 24.8% and the “Observed inhibitory effect (Er)” value (F. oxysporum [2]; peptide 50 µg/mL + Folicur 0.01 µg/mL, mean of 3 experiments) was 36.4 ^b %. For the same compound, the “Expected additive inhibitory effect (Ee)” value (F. oxysporum [2]; peptide 50 µg/mL + Folicur 0.05 µg/mL) was 33.0%, the “Observed inhibitory effect (Er)” value (F. oxysporum [2]; peptide 50 µg/mL + Folicur 0.05 µg/mL, mean of 3 experiments) was 47.4 ^b % and the “Inhibitory effect on conidial germination (Er), peptide alone” value (“Inhibitory effect … peptide alone” for short) (F. oxysporum [2]; peptide 50 µg/mL, Folicur 0.0 µg/mL, SDW, overnight 20–22 °C, mean of 3 experiments) was 7.0 ^a %. For the same compound, the “Expected additive inhibitory effect (Ee)” value (F. oxysporum [2]; peptide 100 µg/mL + Folicur 0.005 µg/mL) was 28.8%, the “Observed inhibitory effect (Er)” value (F. oxysporum [2]; peptide 100 µg/mL + Folicur 0.005 µg/mL, mean of 3 experiments) was 49.3 ^c % and the “Expected additive inhibitory effect (Ee)” value (F. oxysporum [2]; peptide 100 µg/mL + Folicur 0.01 µg/mL) was 37.7%. For the same compound, the “Observed inhibitory effect (Er)” value (F. oxysporum [2]; peptide 100 µg/mL + Folicur 0.01 µg/mL, mean of 3 experiments) was 53.1 ^c %, the “Expected additive inhibitory effect (Ee)” value (F. oxysporum [2]; peptide 100 µg/mL + Folicur 0.05 µg/mL) was 44.1% and the “Observed inhibitory effect (Er)” value (F. oxysporum [2]; peptide 100 µg/mL + Folicur 0.05 µg/mL, mean of 3 experiments) was 56.8 ^c %. For the same compound, the “Inhibitory effect … peptide alone” value (F. oxysporum [2]; peptide 100 µg/mL, Folicur 0.0 µg/mL, SDW, overnight 20–22 °C, mean of 3 experiments) was 22.4 ^b %, the “Expected additive inhibitory effect (Ee)” value (F. oxysporum [2]; peptide 200 µg/mL + Folicur 0.005 µg/mL) was 41.8% and the “Observed inhibitory effect (Er)” value (F. oxysporum [2]; peptide 200 µg/mL + Folicur 0.005 µg/mL, mean of 3 experiments) was 62.6 ^d %. The “Expected additive inhibitory effect (Ee)” value (F. oxysporum [2]; peptide 200 µg/mL + Folicur 0.01 µg/mL) was 47.1%, the “Observed inhibitory effect (Er)” value (F. oxysporum [2]; peptide 200 µg/mL + Folicur 0.01 µg/mL, mean of 3 experiments) was 74.8 ^d % and the “Expected additive inhibitory effect (Ee)” value (F. oxysporum [2]; peptide 200 µg/mL + Folicur 0.05 µg/mL) was 52.7%. The “Observed inhibitory effect (Er)” value (F. oxysporum [2]; peptide 200 µg/mL + Folicur 0.05 µg/mL, mean of 3 experiments) was 87.1 ^d % and the “Inhibitory effect … peptide alone” value (F. oxysporum [2]; peptide 200 µg/mL, Folicur 0.0 µg/mL, SDW, overnight 20–22 °C, mean of 3 experiments) was 34.1 ^c %.

In the case of CC(C)C[C@H](N)C(=O)N[C@@H](CS)C(=O)N[C@@H](CS)C(=O)NCC(=O)N[C@@H](CCCCN)C(=O)N[C@@H](Cc1ccc(O)cc1)C(=O)NCC(=O)N[C@@H](Cc1ccccc1)C(=O)N[C@@H](CS)C(=O)NCC(=O)N[C@@H](CO)C(=O)NCC(=O)O [WAMP-G1] (H-LCCGKYGFCGSG-OH), the “ED99 (MFC)” value (F. oxysporum [1]) is reported as >10,000 µg/mL, the “ED99 (MFC)” value (A. solani [3]) is reported as 3980.0 ^f µg/mL and the “Inhibitory effect … peptide alone” value (F. oxysporum [2]; 100 µg/mL) is reported as 1.1 ^a %. For the same compound, the “Inhibitory effect … peptide alone” value (F. oxysporum [2]; 200 µg/mL) was 8.0 ^b %, the “Inhibitory effect … peptide alone” value (F. oxysporum [2]; 400 µg/mL) was 17.5 ^c % and the “Inhibitory effect … peptide alone” value (A. solani [4]; 100 µg/mL) was 2.0 ^a %. The “Inhibitory effect … peptide alone” value (A. solani [4]; 200 µg/mL) was 9.8 ^b % and the “Inhibitory effect … peptide alone” value (A. solani [4]; 400 µg/mL) was 21.9 ^c %.

In the case of N=C(N)NCCC[C@H](NC(=O)[C@H](CS)NC(=O)CNC(=O)[C@H](CCCNC(=N)N)NC(=O)[C@H](CS)NC(=O)[C@H](CCC(N)=O)NC(=O)[C@H](CO)NC(=O)[C@H](CCC(N)=O)NC(=O)[C@H](CS)NC(=O)[C@H](CO)NC(=O)CNC(=O)[C@H](CCCCN)NC(=O)CN)C(=O)O [WAMP-C] (H-GKGSCQSQCRGCR-OH), the “ED99 (MFC)” value (F. oxysporum [1]) is reported as 106.9 ^d µg/mL, the “ED99 (MFC)” value (A. solani [3]) is reported as 53.4 ^g µg/mL and the “Inhibitory effect … peptide alone” value (F. oxysporum [2]; 50 µg/mL) is reported as 4.3 ^a %. The “Inhibitory effect … peptide alone” value (F. oxysporum [2]; 100 µg/mL) was 6.2 ^b %, the “Inhibitory effect … peptide alone” value (F. oxysporum [2]; 200 µg/mL) was 8.6 ^c % and the “Inhibitory effect … peptide alone” value (F. oxysporum [2]; 400 µg/mL) was 11.6 ^c %. For the same compound, the “Inhibitory effect … peptide alone” value (A. solani [4]; 100 µg/mL) was 19.0 ^a %, the “Inhibitory effect … peptide alone” value (A. solani [4]; 200 µg/mL) was 31.0 ^b % and the “Inhibitory effect … peptide alone” value (A. solani [4]; 400 µg/mL) was 48.2 ^c %.

C[C@H](N)C(=O)N[C@@H](CCC(N)=O)C(=O)N[C@@H](CCCNC(=N)N)C(=O)N[C@@H](CS)C(=O)NCC(=O)N[C@@H](CC(=O)O)C(=O)N[C@@H](CCC(N)=O)C(=O)N[C@@H](C)C(=O)N[C@@H](CCCNC(=N)N)C(=O)NCC(=O)N[C@@H](C)C(=O)N[C@@H](CCCCN)C(=O)N[C@@H](CS)C(=O)O [WAMP-N] (H-AQRCGDQARGAKC-OH) was tested, and the “ED99 (MFC)” value (F. oxysporum [1]) was 22.7 µg/mL, the “Inhibitory effect … peptide alone” value (F. oxysporum [2]; 50 µg/mL) was 12.3 ^a % and the “Inhibitory effect … peptide alone” value (F. oxysporum [2]; 100 µg/mL) was 23.1 ^b %. For the same compound, the “Inhibitory effect … peptide alone” value (F. oxysporum [2]; 200 µg/mL) was 42.7 ^c %.
